According to patent US11370847B2, “Single domain antibodies directed against intracellular antigens” (Singh Biotechnology, LLC, priority 2014, dated 2022):
“And” between values parts separate entries of the source, which are not always exact repeats. Equal values may be shown once.

Key:
MDA-MB 231 cells = test: Internalization of sdAb, anti-His staining, MDA-MB 231; type: cell-based; conditions: 18 hours after sdAb addition
Procedure: (§1) The next day, the chambers were rinsed with fresh media and STAT3 VHH13 (SEQ ID NO:3) sdAb (diluted 1:10 in media) or TNF-α VHH66 (SEQ ID NO:45) sdAb was added to the chamber. An anti-HIV-1 Reverse Transcriptase (RT) sdAb was used as a negative control.
(§2) The slides were incubated for 18 hours after sdAb addition. The chambers were briefly rinsed with media and fixed in ice-cold methanol for 5-10 min. The chambers were then dried and stained with a fluorescent anti-His tag antibody (1:200) (Novus Biologicals, Littleton, Colo.) for 45 min at room temperature. The slides were rinsed in PBS for 5 minutes and mounted.

SJSA-1 xenograft = test: SJSA-1 Bone Osteosarcoma subcutaneous xenograft model
STAT3 = test: Immunofluorescence of Stat3 nuclear translocation after IL-6; type: cell-based; conditions: HEp-2, MDA-MB-231 and PANC-1 cells; sdAb 1:10 overnight; 100 ng/ml IL-6 15 min
Procedure: The cells were grown to confluence on chamber slides. […] As a negative control, no antibody was added to duplicate chambers. The slides were washed, and either serum-free media alone or 100 ng/ml recombinant human IL-6 (Peprotech, Rocky Hill, N.J.) in serum free media was added to the slides for 15 min at 37° C. The media was then removed and the chamber slides were fixed in ice cold 100% methanol for 10 min at −20° C.
Immunofluorescence assays were performed on the fixed slides. First, the slides were blocked with 3% BSA in PBS was done for one hour at room temperature. The primary antibody, Stat3(124H6) mouse monoclonal antibody (Cell Signaling Technology, Danvers, Mass.) was added to the slides at a 1:1000 dilution overnight in dark box at 4° C. The following day, the slides were washed and the secondary Alexa Fluor 488 anti-mouse IgG antibody (Cell Signaling Technology) was added at a 1:500 dilution and incubated for 1 hour at room temperature. The slides were then washed, mounted with mounting media and viewed with a fluorescence microscope.

PANC-1 cells = test: Internalization of sdAb, anti-His staining, PANC-1; type: cell-based; conditions: 18 hours after sdAb addition
Procedure: as §1, §2

VEGF-A = VEGF-A ELISA in ARPE-19 retinal cells; type: cell-based, human; conditions: Experiment 2; for pg VEGF-A per μg protein: single wells
BT474 xenograft = test: BT474 human breast tumor xenograft in CB.17 SCID mice; type: in vivo
SJSA-1 cells = test: MTT proliferation assay, SJSA-1; type: cell-based, human; conditions: for Mean Abs (±SD): 72 hours
endogenous STAT3 = test: Immunoprecipitation from cell lines with constitutively activated STAT3; type: binding, human (PANC-1 and DU145) and murine (4T1)
Procedure: Commercial HeLa cells were also treated with interferon gamma (INFΓ) in order to induce phosphorylated STAT3. The PC-3 STAT3 null cell line was used as a negative control.
The cells were grown to 50% to 70% confluence, then disrupted in freshly prepared ice-cold lysis buffer as described above for 45 minutes on ice. Lysates were then centrifuged, the supernatant collected, and protein concentration was determined as described above. […] Beads were then washed. Following the final wash, 60 μl of lysis buffer was added, and the resulting supernatant was subject to Western Blot analysis as described in Example 2.

[1] = SBT-100 5.0 mg/kg BID 14 days IP, Doxorubicin 7.0 mg/kg days 1, 8 and 14 IP
[2] = study day 9 post implant, IP, SBT-100 5.0 mg/kg BIDx14 and/or Doxorubicin 7.0 mg/kg days 1, 8, 14
[3] = study day 13 post implant, IP, SBT-100 5.0 mg/kg BIDx14 and/or Doxorubicin 7.0 mg/kg days 1, 8, 14
[4] = study day 16 post implant, IP, SBT-100 5.0 mg/kg BIDx14 and/or Doxorubicin 7.0 mg/kg days 1, 8, 14
[5] = study day 20 post implant, IP, SBT-100 5.0 mg/kg BIDx14 and/or Doxorubicin 7.0 mg/kg days 1, 8, 14
[6] = study day 21 post implant, IP, SBT-100 5.0 mg/kg BIDx14 and/or Doxorubicin 7.0 mg/kg days 1, 8, 14
[7] = study day 23 post implant, IP, SBT-100 5.0 mg/kg BIDx14 and/or Doxorubicin 7.0 mg/kg days 1, 8, 14
[8] = study day 27 post implant, IP, SBT-100 5.0 mg/kg BIDx14 and/or Doxorubicin 7.0 mg/kg days 1, 8, 14
[9] = SB-01 1 mg/kg ip tid × 14 first day 2 doses

Question: Which results are given for “anti-STAT3 VHH13: anti-STAT3 single-domain antibody, SEQ ID NO:3; bacterially produced, referred to as SBT-100”?
Answer: staining with fluorescent anti-His tag antibody (MDA-MB 231 cells): positive cytoplasmic staining; % T/C (SJSA-1 xenograft; [1]): 69.91%; mean tumor growth inhibition at the end of the study (SJSA-1 xenograft; [1]): 25.23%; mean tumor size (±S.E.) at termination (SJSA-1 xenograft; [1]): 1055.68±307.10; mean tumor size (±SE) at the last day of dosing (SJSA-1 xenograft; [1]): 334.52±114.62; mean tumor size compared to control (SJSA-1 xenograft; SJSA-1 xenograft): non-significant decrease in mean tumor size; tumor doubling time (SJSA-1 xenograft; control 8.22): 8.84; % Inh Mean (SJSA-1 xenograft; [2]): 21.06%; % Inh Med (SJSA-1 xenograft; [2]): 11.92%; Mean Abs (tumor measurement) (SJSA-1 xenograft; [2]): 31.31 mm^3; Median Abs (tumor measurement) (SJSA-1 xenograft; [2]): 19.98 mm^3; Tumor Measurements, single animals (SJSA-1 xenograft; [2]): 15.75 mm^3 and 19.98 mm^3 and 0.00 mm^3 and 69.47 mm^3 and 10.46 mm^3 and 79.76 mm^3 and 23.77 mm^3; % Inh Mean (SJSA-1 xenograft; [3]): −45.34%; % Inh Med (SJSA-1 xenograft; [3]): −44.59%; Mean Abs (tumor measurement) (SJSA-1 xenograft; [3]): 115.14 mm^3; Median Abs (tumor measurement) (SJSA-1 xenograft; [3]): 85.60 mm^3; Tumor Measurements, single animals (SJSA-1 xenograft; [3]): 106.64 mm^3 and 28.26 mm^3 and 0.00 mm^3 and 126.45 mm^3 and 38.25 mm^3 and 420.78 mm^3 and 85.60 mm^3; % Inh Mean (SJSA-1 xenograft; [4]): 12.69%; % Inh Med (SJSA-1 xenograft; [4]): 14.60%; % T/C (SJSA-1 xenograft; [4]): 71.23%; Mean Abs (tumor measurement) (SJSA-1 xenograft; [4]): 151.57 mm^3; Median Abs (tumor measurement) (SJSA-1 xenograft; [4]): 139.83 mm^3; Tumor Measurements, single animals (SJSA-1 xenograft; [4]): 139.83 mm^3 and 36.05 mm^3 and 11.02 mm^3 and 200.95 mm^3 and 187.82 mm^3 and 358.90 mm^3 and 126.46 mm^3; % Inh Mean (SJSA-1 xenograft; [5]): 18.11%; % Inh Med (SJSA-1 xenograft; [5]): 24.54%; % T/C (SJSA-1 xenograft; [5]): 73.26%; Mean Abs (tumor measurement) (SJSA-1 xenograft; [5]): 252.90 mm^3; Median Abs (tumor measurement) (SJSA-1 xenograft; [5]): 191.62 mm^3; Tumor Measurements, single animals (SJSA-1 xenograft; [5]): 191.62 mm^3 and 70.70 mm^3 and 59.97 mm^3 and 616.53 mm^3 and 180.38 mm^3 and 450.45 mm^3 and 200.68 mm^3; % Inh Mean (SJSA-1 xenograft; [6]): 16.23%; % Inh Med (SJSA-1 xenograft; [6]): 35.42%; % T/C (SJSA-1 xenograft; [6]): 76.22%; Mean Abs (tumor measurement) (SJSA-1 xenograft; [6]): 334.52 mm^3; Median Abs (tumor measurement) (SJSA-1 xenograft; [6]): 198.86 mm^3; Tumor Measurements, single animals (SJSA-1 xenograft; [6]): 271.05 mm^3 and 115.97 mm^3 and 96.53 mm^3 and 901.18 mm^3 and 155.51 mm^3 and 602.51 mm^3 and 198.86 mm^3; % Inh Mean (SJSA-1 xenograft; [7]): 8.48%; % Inh Med (SJSA-1 xenograft; [7]): 33.12%; % T/C (SJSA-1 xenograft; [7]): 79.47%; Mean Abs (tumor measurement) (SJSA-1 xenograft; [7]): 477.43 mm^3; Median Abs (tumor measurement) (SJSA-1 xenograft; [7]): 308.49 mm^3; Tumor Measurements, single animals (SJSA-1 xenograft; [7]): 308.49 mm^3 and 201.00 mm^3 and 185.39 mm^3 and 1,359.67 mm^3 and 197.83 mm^3 and 756.79 mm^3 and 332.80 mm^3; % Inh Mean (SJSA-1 xenograft; [8]): 25.23%; % Inh Med (SJSA-1 xenograft; [8]): 37.90%; % T/C (SJSA-1 xenograft; [8]): 69.91%; Mean Abs (tumor measurement) (SJSA-1 xenograft; [8]): 1,055.68 mm^3; Median Abs (tumor measurement) (SJSA-1 xenograft; [8]): 707.34 mm^3; Tumor Measurements, single animals (SJSA-1 xenograft; [8]): 707.34 mm^3 and 474.71 mm^3 and 380.72 mm^3 and 2,500.29 mm^3 and 351.21 mm^3 and 1,699.89 mm^3 and 1,275.63 mm^3; translocation of Stat3 to the nucleus following IL-6 treatment (STAT3): blocks the translocation of Stat3 to the nucleus; staining with fluorescent anti-His tag antibody (PANC-1 cells): positive cytoplasmic staining; pg VEGF-A per μg protein (VEGF-A; ARPE-19, 0.1 μg/well, 12 Hr): 2.4 pg per μg protein; pg VEGF-A per μg protein (VEGF-A; ARPE-19, 10 μg/well, 24 Hr): 4.4 pg per μg protein; decrease in VEGF-A (VEGF-A; ARPE-19, 100 μg/mL, 12 hour treatment): 20.1%; decrease in VEGF-A (VEGF-A; ARPE-19, 100 μg/mL, 24 hour treatment): 7.5%; pg VEGF-A/μg protein as % of the negative control (VEGF-A; ARPE-19, 100 μg/mL, 48 hours): 11%; decrease in VEGF-A (VEGF-A; lower concentrations (10, 1 or 0.1 μg/ml)): not seen; effect on growth of BT474 tumors compared to control (BT474 xenograft; 1 mg/kg ip tid × 14): did not reduce the growth of BT474 tumors in vivo; % TGD (BT474 xenograft; [9]): 22%; MTV (n) Day 60 (BT474 xenograft; [9]): 550; Median TTE (BT474 xenograft; [9]): 60.0; IC50 (SJSA-1 cells; SJSA, 72 hr): IC50 = 51 μg/ml; Mean Abs (±SD) (SJSA-1 cells; Table 72 (experiment 5a), SBT-100 3.13 μg/ml alone): 0.278 ± 0.057; Mean Abs (±SD) (SJSA-1 cells; Table 72 (experiment 5a), SBT-100 6.25 μg/ml alone): 0.258 ± 0.097; Mean Abs (±SD) (SJSA-1 cells; Table 72 (experiment 5a), SBT-100 25 μg/ml alone): 0.221 ± 0.034; Mean Abs (±SD) (SJSA-1 cells; Table 72 (experiment 5a), SBT-100 50 μg/ml alone): 0.066 ± 0.003; Mean Abs (±SD) (SJSA-1 cells; Table 72 (experiment 5a), SBT-100 100 μg/ml alone): 0.058 ± 0.002; Mean Abs (±SD) (SJSA-1 cells; Table 73 (Experiment 2, 5b), SBT-100 3.13 μg/ml alone): 0.774 ± 0.068; Mean Abs (±SD) (SJSA-1 cells; Table 73 (Experiment 2, 5b), SBT-100 6.25 μg/ml alone): 0.835 ± 0.058; Mean Abs (±SD) (SJSA-1 cells; Table 73 (Experiment 2, 5b), SBT-100 25 μg/ml alone): 0.781 ± 0.057; Mean Abs (±SD) (SJSA-1 cells; Table 73 (Experiment 2, 5b), SBT-100 50 μg/ml alone): 0.460 ± 0.038; Mean Abs (±SD) (SJSA-1 cells; Table 73 (Experiment 2, 5b), SBT-100 100 μg/ml alone): 0.091 ± 0.002; binding to Phospho-STAT3 (endogenous STAT3; HeLa lysate (interferon gamma treated)): bound; immunoprecipitation of endogenous STAT3 (endogenous STAT3; PANC-1, DU145 and 4T1 lysates): immunoprecipitated; immunoprecipitation in STAT3 null cell line (endogenous STAT3; PC-3 (negative control)): No bands
